In patent US20260116884A1, “PROTAC CHIMERIC COMPOUND, PREPARATION METHOD THEREFOR AND USE THEREOF” (HANGZHOU ZHONGMEIHUADONG PHARMACEUTICAL CO., LTD., priority 2022, published 2026):

tested on: IL2 activation in human PBMC; assay: IL2 activity assay (ELISA) in human PBMC; assay type: cell-based; details: CD3/CD28 antibody, 24 h
Protocol: The compound was diluted with DMSO in a dilution plate, with a maximum starting concentration of 10 μM, 8 concentration gradient points (3-fold dilution), and then added to the 96-well plate along with the addition of 5 µg/ml CD28 antibody. Incubation was performed for 24 h. • (3) The ELISA plate was washed twice with PBS, and an ELISA dilution was added at 100 µl/well. Then 100 μl of the standard and the incubated samples obtained in step 2 were added separately, and incubated for 2 h at room temperature. • (4) Each well was washed 3 times by adding with 400 μl washing buffer per well, and was finally blotted to dryness with a clean absorbent paper. • (5) 200 μl of the IL2 conjugate was added per well, covered with a fresh tape, and incubated for 2 h at room temperature. Step (4) was repeated. • (6) 200 μl of the substrate was added per well under the protection from light. The plate was incubated at room temperature for 20 min. • (7) 50 μL of a stop solution was added per well. The color of the wells should be from blue to yellow. Signals at […] were read by a microplate reader, and the signal intensity was used to characterize the activity level of IL2. EC50 values were obtained by fitting using the Prism software.

Row | SMILES | EC50 [nM]
1 | CCN1CCC(n2cc(-c3c[nH]c4ncc(-c5ccc(N6CCC(OC7CCN(C(=O)c8ccc(Cl)c(N9CCC(=O)NC9=O)c8)CC7)CC6)c(C)c5)nc34)cn2)CC1 [Compound C132] | 34.6
2 | CCN1CCC(n2cc(-c3c[nH]c4ncc(-c5ccc(N6CCC(OC7CCN(C(=O)c8ccc(Cl)c(N9CCC(=O)NC9=O)c8)CC7)CC6)cc5)nc34)cn2)CC1 [Compound C131] | 41.7
3 | CCN1CCC(n2cc(-c3c[nH]c4ncc(-c5ccc(N6CCC(C)(CN7CCN(C(=O)c8ccc(Cl)c(N9CCC(=O)NC9=O)c8)CC7)CC6)cc5)nc34)cn2)CC1 [Compound C139] | 104
4 | CCN1CCC(n2cc(-c3c[nH]c4ncc(-c5ccc(N6CCC(OC7CCN(C(=O)c8ccc(Cl)c(N9CCC(=O)NC9=O)c8)CC7)CC6)c(F)c5)nc34)cn2)CC1 [Compound C134] | 41.7
5 | CCN1CCC(n2cc(-c3c[nH]c4ncc(-c5ccc(N6CCC(CC7CCCN(C(=O)c8ccc(Cl)c(N9CCC(=O)NC9=O)c8)CC7)CC6)cc5)nc34)cn2)CC1 (stereo not shown) [Compound C122] | 59.9
6 | CCN1CCC(n2cc(-c3c[nH]c4ncc(-c5ccc(N6CCC(CC7CCN(C(=O)c8ccc(Cl)c(N9CCC(=O)NC9=O)c8)CC7)CC6)c(F)c5)nc34)cn2)CC1 [Compound C135] | 44.1

molecular target: T1, human HPK1 (Homo sapiens, UniProt Q92918); assay: Assay of in vitro HPK1 enzymatic activity (ADP-Glo); assay type: biochemical; details: 7 nM kinase, 20 uM ATP
Protocol: Compounds were evaluated for their ability to inhibit human HPK1 by IC50 determination using the ADP-Glo method to measure the kinase activity.
Buffer conditions of the enzyme: 50 mM Hepes (pH 7.5), 10 mM MgCl2, 1 mM EGTA, 0.01% Brij35, 2 mM DTT.
Preparation of the Kinase and substrate mixture: the working concentration of the kinase in the HPK1 reaction solution was 7 nM and the working concentration of ATP was 20 uM.
The compound was diluted with DMSO in a dilution plate, with a maximum starting concentration of 1 uM and 10 concentration gradient points (4-fold dilution).
Each of the above 10 concentration gradient points of the compound was then diluted 50-fold into the kinase reaction buffer and shaken on a shaker for 20 min. The kinase was prepared in an enzyme reaction buffer and 2 μl of the HPK1 kinase was added per well of the reaction plate at a HPK1 kinase concentration of 7 nM.
1 μl of diluted compound in the buffer was added per well, and the plate was sealed with a plate sealing film, centrifuged at 1000 g for 30 seconds, and left at room temperature for 10 minutes. An ATP solution was prepared with an enzyme reaction buffer and 2 μl of the ATP solution was added to the reaction plate (the working concentration of ATP was 20 uM). The plate was sealed with a plate sealing film, centrifuged at 1000 g for 30 seconds, and reacted at room temperature for 60 minutes. 4 μL of ADP-Glu was transferred to a 384 reaction plate, centrifuged at 1000 rpm/min for 1 min, and incubated at 25° C. for 40 min. 8 μL of the Detection solution was transferred to a 384 reaction plate, centrifuged at 1000 rpm/min for 1 min, and incubated at 25° C. for 40 min. The RLU (Relative luminescence unit) signal was read using a BMG microplate reader, and the signal intensity was used to characterize the activity level of the kinase.
The kinase activity data was expressed by comparing the kinase activity of the test compound and the blank group (containing only DMSO), and the IC50 value was obtained by curve fitting using the Prism software (GraphPad7.0).

T1 sequence (Q92918 whole entry): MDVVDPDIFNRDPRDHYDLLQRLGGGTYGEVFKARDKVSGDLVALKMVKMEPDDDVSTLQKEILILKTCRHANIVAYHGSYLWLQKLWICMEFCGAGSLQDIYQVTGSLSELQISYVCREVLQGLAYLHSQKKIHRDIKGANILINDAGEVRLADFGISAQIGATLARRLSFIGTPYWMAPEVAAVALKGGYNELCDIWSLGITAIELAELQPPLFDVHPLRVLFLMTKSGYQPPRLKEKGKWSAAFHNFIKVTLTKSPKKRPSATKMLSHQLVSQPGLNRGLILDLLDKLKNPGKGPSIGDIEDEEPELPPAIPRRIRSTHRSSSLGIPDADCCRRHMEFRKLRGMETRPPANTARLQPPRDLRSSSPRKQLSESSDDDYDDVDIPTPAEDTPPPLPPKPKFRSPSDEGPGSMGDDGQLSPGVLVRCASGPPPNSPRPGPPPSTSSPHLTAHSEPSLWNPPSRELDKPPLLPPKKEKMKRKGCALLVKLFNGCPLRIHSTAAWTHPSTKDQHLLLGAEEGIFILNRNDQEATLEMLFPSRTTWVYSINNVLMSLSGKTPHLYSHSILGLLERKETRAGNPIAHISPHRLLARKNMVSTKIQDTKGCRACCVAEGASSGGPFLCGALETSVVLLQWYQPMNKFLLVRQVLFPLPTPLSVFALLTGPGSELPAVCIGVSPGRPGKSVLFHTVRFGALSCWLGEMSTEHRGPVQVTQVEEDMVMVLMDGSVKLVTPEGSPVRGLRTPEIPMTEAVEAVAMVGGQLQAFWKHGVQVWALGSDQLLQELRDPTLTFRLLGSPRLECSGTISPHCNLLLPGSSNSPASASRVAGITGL

Row | SMILES | IC50 [nM]
7 | CCN1CCC(n2cc(-c3c[nH]c4ncc(-c5ccc(OCCCNC(=O)c6ccc(Cl)c(N7CCC(=O)NC7=O)c6)c(C)c5)nc34)cn2)CC1 [Compound C039] | 1.4
8 | CCN1CCC(n2cc(-c3c[nH]c4ncc(-c5cnc(OCCN(C)C(=O)c6ccc(Cl)c(N7CCC(=O)NC7=O)c6)c(C)c5)nc34)cn2)CC1 [Compound C045] | 5.1
9 | CCN1CCC(n2cc(-c3c[nH]c4ncc(-c5ccc(N6CCN(C7CCC(NC(=O)c8ccc(Cl)c(N9CCC(=O)NC9=O)c8)CC7)CC6)nc5)nc34)cn2)CC1 (stereo not shown) [Compound C027] | 0.9
10 | CCN1CCC(n2cc(-c3c[nH]c4ncc(-c5ccc(N6CCN(CC7CCN(C(=O)c8ccc(Cl)c(N9CCC(=O)NC9=O)c8)CC7)CC6)nc5)nc34)cn2)CC1 [Compound C020] | 5.5
11 | CCN1CCC(n2cc(-c3c[nH]c4ncc(-c5ccc(OC(C)CNC(=O)c6ccc(Cl)c(N7CCC(=O)NC7=O)c6)nc5)nc34)cn2)CC1 (stereo not shown) [Compound C044] | 50.4
12 | CCN1CCC(n2cc(-c3c[nH]c4ncc(-c5ccc(OCC(C)(C)CNC(=O)c6ccc(Cl)c(N7CCC(=O)NC7=O)c6)nc5)nc34)cn2)CC1 [Compound C041] | 14.6
13 | CCN1CCC(n2cc(-c3c[nH]c4ncc(-c5ccc(N6CCN(C7CCC(NC(=O)c8ccc(Cl)c(N9CCC(=O)NC9=O)c8)CC7)CC6)cc5)nc34)cn2)CC1 (stereo not shown) [Compound C029] | 1.6
14 | CCN1CCC(n2cc(-c3c[nH]c4ncc(-c5ccc(OCCCNC(=O)c6cccc(N7CCC(=O)NC7=O)c6)c(C)c5)nc34)cn2)CC1 [Compound C042] | 2.1
15 | CCN1CCC(n2cc(-c3c[nH]c4ncc(-c5cnc(NCCNC(=O)c6cccc(N7CCC(=O)NC7=O)c6)c(C)c5)nc34)cn2)CC1 [Compound C009] | 8.8
16 | CCN1CCC(n2cc(-c3c[nH]c4ncc(-c5ccc(OCCN6CCC(NC(=O)c7ccc(Cl)c(N8CCC(=O)NC8=O)c7)CC6)nc5)nc34)cn2)CC1 [Compound C023] | 6.4
17 | CCN1CCC(n2cc(-c3c[nH]c4ncc(-c5ccc(OCCNC6CCC(NC(=O)c7ccc(Cl)c(N8CCC(=O)NC8=O)c7)CC6)nc5)nc34)cn2)CC1 (stereo not shown) [Compound C028] | 2.4
18 | CCN1CCC(n2cc(-c3c[nH]c4ncc(-c5cnc(N6CCN(CC7CCN(C(=O)c8cccc(N9CCC(=O)NC9=O)c8)CC7)CC6)c(C)c5)nc34)cn2)CC1 [Compound C002] | 2.6
19 | CCN1CCC(n2cc(-c3c[nH]c4ncc(-c5cnn(C6CCN(C7CCC(NC(=O)c8ccc(Cl)c(N9CCC(=O)NC9=O)c8)CC7)CC6)c5)nc34)cn2)CC1 (stereo not shown) [Compound C036] | 3.7
20 | CCN1CCC(n2cc(-c3c[nH]c4ncc(-c5cnc(OCCNC(=O)c6cccc(N7CCC(=O)NC7=O)c6)c(C)c5)nc34)cn2)CC1 [Compound C016] | 15
21 | CCN1CCC(n2cc(-c3c[nH]c4ncc(-c5cnc(N6CCN(C(=O)c7ccc(N8CCC(=O)NC8=O)cc7)CC6)c(C)c5)nc34)cn2)CC1 [Compound C001] | 5.2
22 | CCN1CCC(n2cc(-c3c[nH]c4ncc(-c5ccc(N6CCN(C(=O)CCOCCNc7cccc8c7C(=O)N(C7CCC(=O)NC7=O)C8=O)CC6)nc5)nc34)cn2)CC1 (stereo not shown) [Compound C025] | 8.8
23 | CCN1CCC(n2cc(-c3c[nH]c4ncc(-c5cnc(OC6CN(C(=O)c7cccc(N8CCC(=O)NC8=O)c7)C6)c(C)c5)nc34)cn2)CC1 [Compound C015] | 6.2
24 | CCN1CCC(n2cc(-c3c[nH]c4ncc(-c5cnc(OC(C)CNC(=O)c6ccc(Cl)c(N7CCC(=O)NC7=O)c6)c(C)c5)nc34)cn2)CC1 (stereo not shown) [Compound C043] | 27.8
25 | CCN1CCC(n2cc(-c3c[nH]c4ncc(-c5cnc(N6CCN(CC7CCN(C(=O)c8ccc(Cl)c(N9CCC(=O)NC9=O)c8)CC7)CC6)c(C)c5)nc34)cn2)CC1 [Compound C004] | 1.6
26 | CCN1CCC(n2cc(-c3c[nH]c4ncc(-c5ccc(OCCCCNC(=O)c6ccc(Cl)c(N7CCC(=O)NC7=O)c6)nc5)nc34)cn2)CC1 [Compound C038] | 21.7
27 | CCN1CCC(n2cc(-c3c[nH]c4ncc(-c5cnc(OC6CCN(C(=O)c7cccc(N8CCC(=O)NC8=O)c7)CC6)c(C)c5)nc34)cn2)CC1 [Compound C014] | 1.5
28 | CCN1CCC(n2cc(-c3c[nH]c4ncc(-c5ccc(OCCNC(=O)c6ccc(Cl)c(N7CCC(=O)NC7=O)c6)cc5)nc34)cn2)CC1 [Compound C035] | 2.5
29 | CCN1CCC(n2cc(-c3c[nH]c4ncc(-c5cnc(OCC(=O)Nc6ccc(NC7CCC(=O)NC7=O)cc6)c(F)c5)nc34)cn2)CC1 (stereo not shown) [Compound C008] | 3.5
30 | CCN1CCC(n2cc(-c3c[nH]c4ncc(-c5ccc(OCCNC(=O)c6ccc(Cl)c(N7CCC(=O)NC7=O)c6)c(C)c5)nc34)cn2)CC1 [Compound C034] | 1.2

molecular target: T1, human HPK1; assay: HPK1 protein degradation assay (WB) in RAMOS cell line; assay type: cell-based; set-up: The RAMOS cell line was selected as the degradation cell line; endogenous in cells; host or cells: RAMOS; details: RAMOS cells, 16 h, Western blot
Protocol: Degradation of HPK1 proteins and DC50/Dmax were determined by the WB method in order to evaluate the in vitro degradative ability of the compound.
The RAMOS cell line was selected as the degradation cell line. Incubation Conditions: RMPI 1640 culture medium supplemented with 10% FBS, 37° C., 5% CO2.
• (1) Plating cells: in a 6 cm dish with 4 ml of the culture medium, cells plated at 2×10^6 cells/dish. • (2) Drug addition: the compound (stock solution concentration: 10 mM) was diluted with DMSO in a dilution plate, with a maximum starting concentration of 10 μM and 7 concentration gradient points (3-fold dilution). 4 μl of each diluted solution was taken, added to a dish, and incubated for 16 h. • (3) Cells were harvested, added with a lysis buffer, and centrifuged at 12000 rpm/min for 20 min. The supernatant was collected. After quantification using a BCA quantification kit, 5× loading buffer was added to denature for 10 min. • (4) 10 μg of denatured protein was added to the SDS-PAGE gel. After electrophoresis and membrane transfer, the plate was blocked with 5% BSA for 1 h, incubate with the primary antibody at 4° C. overnight. After washing off the primary antibody, the secondary antibody was added, incubated at room temperature for 1 h, and washed off.
Imaging: the membranes were scanned with a two-color fluorescence imaging system.

Row | SMILES | DC50 [nM] | Dmax [%]
31 | CCN1CCC(n2cc(-c3c[nH]c4ncc(-c5ccc(N6CCC(OC7CCN(C(=O)c8ccc(Cl)c(N9CCC(=O)NC9=O)c8)CC7)CC6)c(C)c5)nc34)cn2)CC1 [Compound C132] | 29.3 | 73
32 | CCN1CCC(n2cc(-c3c[nH]c4ncc(-c5ccc(N6CCC(OC7CCN(C(=O)c8ccc(Cl)c(N9CCC(=O)NC9=O)c8)CC7)CC6)cc5)nc34)cn2)CC1 [Compound C131] | 386 | 52
33 | CCN1CCC(n2cc(-c3c[nH]c4ncc(-c5ccc(N6CCC(C)(CN7CCN(C(=O)c8ccc(Cl)c(N9CCC(=O)NC9=O)c8)CC7)CC6)cc5)nc34)cn2)CC1 [Compound C139] | 52.4 | 80.9
34 | CCN1CCC(n2cc(-c3c[nH]c4ncc(-c5ccc(N6CCC(OC7CCN(C(=O)c8ccc(Cl)c(N9CCC(=O)NC9=O)c8)CC7)CC6)c(F)c5)nc34)cn2)CC1 [Compound C134] | 7.22 | 78
35 | CCN1CCC(n2cc(-c3c[nH]c4ncc(-c5ccc(N6CCC(CC7CCN(C(=O)c8ccc(Cl)c(N9CCC(=O)NC9=O)c8)CC7)CC6)c(F)c5)nc34)cn2)CC1 [Compound C135] | 176 | 63
